Laboratory results from US12173018B2, “Penicillin-binding protein inhibitors” (priority 2018, dated 2024).
pEC50: −log10 of the molar value. Where two headings read alike, the source gives them in different places.

Key:
E. coli PBP3 = E. coli PBP3 (Escherichia coli (strain K12), UniProt P0AD68); assay: E. coli PBP3 Bocillin-FL fluorescence polarization competition binding assay
Description: To determine the ability of boronic acid-based test PBP inhibitors to bind Penicillin Binding Proteins (PBPs), Bocillin-FL (fluorescently-labeled penicillin V; ThermoFisher Scientific) was used in a fluorescence polarization (FP) competition binding assay to assess inhibitor binding to PBP2, PBP3 or PBP4 from Escherichia coli. PBPs were cloned and purified as described previously (King, D. T, et al., ACS Infectious Diseases 2015, 1, 175-184). To establish assay conditions for competition binding, an enzyme titration/saturation binding experiment was initially performed. Bocillin-FL was prepared at 0.2 μM in a buffer comprised of 50 mM Hepes (pH 8.0), 300 mM NaCl and 5% (v/v) glycerol. Saturation binding was performed by mixing 40 μl of PBP solutions ranging in concentrations from 0-12 μM with 40 μl of the 0.2 μM Bocillin-FL solution, in individual wells of a black 384-well microplate. FP was measured immediately upon mixing (Excitation, 490 nm; Emission, 520 nm; g-factor, 0.96), using a Cytation3 (BioTek) microplate reader and measured continuously for up to 120 minutes. […] Assays (80 μl final volume) were performed with PBPs at a final concentration of 1.5 μM, Bocillin-FL at 0.1 μM and beta-lactam concentrations that ranged from 0-1000 μM. […] Bocillin-FL was added and the FP immediately measured for 60 minutes (90 minutes for PBP2). The beta-lactam potency was reported as the concentration of beta-lactam required to reduce binding of Bocillin-FL by […] (EC50). […] Binding assays for boronic acid PBP inhibitors were performed in an identical fashion.

E. coli 901C = assay: microbe, parasite or virus in culture; format: cell-based; settings: Escherichia coli; hyper-permeable E. coli 901C, broth microdilution; read-out: MIC E. coli 901C
Procedure: (§1) To determine the ability of test compounds to potentiate the inhibition of the growth of bacterial strains, classic cell based broth microdilution minimum inhibitory concentration (MIC) assays were employed. MIC assays are performed according to CLSI methods except where otherwise noted (CLSI, 2011 and CLSI, 2009). The reference type strain E. coli ATCC 25922, the wild-type parent strain E. coli AG100, the hyper-permeable E. coli 901C and E. coli D22 and the E. coli AG100A strain lacking the acrAB efflux pump encoding genes were used to determine the ability of the PBP inhibitors to penetrate the outer membrane of gram-negative bacteria and inhibit bacterial growth. […] The P. aeruginosa PAO1, P. aeruginosa ATCC 27853 and A. baumannii ATCC 19606, along with the hyper-permeable P. aeruginosa ATCC 35151 and an engineered efflux pump-compromised strain of P. aeruginosa (ΔmexAB-oprM) were used to determine the ability of PBP inhibitors to penetrate the outer membrane of P. aeruginosa and A. baumannii and assess antibacterial activity against these important gram-negative organisms.
(§2) Briefly, cryo-preserved bacterial cultures of challenge strains are streaked for isolation on appropriate agar medium, in this case Mueller Hinton II agar. Following incubation to allow growth of the colonies, plates are sealed with parafilm and stored refrigerated for up to two weeks. For preparation of assay inoculum and to ensure low variability, at least 5 colonies are picked from the agar plates with an inoculating loop and aseptically transferred to a culture tube containing 3 mL of Mueller-Hinton Broth (supplemented with divalent cations to required levels based on Manufacturers' certification). The broth culture is grown for 3-5 hours at 37° C. with shaking at 200 rpm. Meanwhile, 2-fold serial dilutions of test compounds are conducted in a 96 well plate with a final volume of 75 μL per well at 2-fold the final desired concentration. After the dilution plates are set up the growing cultures are then diluted in a cuvette containing MH II broth and the optical density is measured at 600 nm. The Inoculum is diluted such that 75 μL of this culture in Mueller-Hinton Broth results in a starting bacterial concentration of 5×10^5 CFU/mL when added to the dilution plates. The plates are incubated for 16-20 hours at 37° C. The MIC values are read visually as the lowest concentration well with no bacterial growth.

K. pneumoniae UMM = assay: microbe, parasite or virus in culture; format: cell-based; settings: Klebsiella pneumoniae; K. pneumoniae UMM producing SHV-5 and KPC-2; read-out: MIC K. pneumoniae UMM
Procedure: as §1, §2

E. coli D22 = assay: microbe, parasite or virus in culture; format: cell-based; settings: Escherichia coli; hyper-permeable E. coli D22, broth microdilution; read-out: MIC E. coli D22
Procedure: as §1, §2

K. pneumoniae SI-117 = assay: microbe, parasite or virus in culture; format: cell-based; settings: Klebsiella pneumoniae, SI117, read-out: MIC K. pneumoniae SI-117
Procedure: as §1, §2

E. coli AG100A = assay: microbe, parasite or virus in culture; format: cell-based; settings: Escherichia coli, read-out: MIC E. coli AG100A
Procedure: as §1, §2

E. coli AG100 = assay: Broth microdilution MIC, E. coli AG100 (wild-type parent); format: cell-based; settings: Escherichia coli; wild-type parent E. coli AG100, broth microdilution; read-out: MIC E. coli AG100
Procedure: To determine the ability of test compounds to potentiate the inhibition of the growth of bacterial strains, classic cell based broth microdilution minimum inhibitory concentration (MIC) assays were employed.
as §2

K. pneumoniae 848844 = assay: microbe, parasite or virus in culture; format: cell-based, Klebsiella pneumoniae; settings: Klebsiella pneumoniae; K. pneumoniae 848844 producing SHV-11 and KPC-2; read-out: MIC K. pneumoniae 848844
Procedure: as §1, §2

E. coli ATCC 25922 = assay: Broth microdilution MIC, E. coli ATCC 25922; format: cell-based; settings: Escherichia coli, ATCC25922; E. coli ATCC 25922, broth microdilution; read-out: MIC E. coli 25922
Procedure: as §1, §2

[1] = fluorescence polarization competition binding with Bocillin-FL, read-out: E. coli K12 PBP3 Potency

Chain of E. coli PBP3 (P0AD68 whole entry): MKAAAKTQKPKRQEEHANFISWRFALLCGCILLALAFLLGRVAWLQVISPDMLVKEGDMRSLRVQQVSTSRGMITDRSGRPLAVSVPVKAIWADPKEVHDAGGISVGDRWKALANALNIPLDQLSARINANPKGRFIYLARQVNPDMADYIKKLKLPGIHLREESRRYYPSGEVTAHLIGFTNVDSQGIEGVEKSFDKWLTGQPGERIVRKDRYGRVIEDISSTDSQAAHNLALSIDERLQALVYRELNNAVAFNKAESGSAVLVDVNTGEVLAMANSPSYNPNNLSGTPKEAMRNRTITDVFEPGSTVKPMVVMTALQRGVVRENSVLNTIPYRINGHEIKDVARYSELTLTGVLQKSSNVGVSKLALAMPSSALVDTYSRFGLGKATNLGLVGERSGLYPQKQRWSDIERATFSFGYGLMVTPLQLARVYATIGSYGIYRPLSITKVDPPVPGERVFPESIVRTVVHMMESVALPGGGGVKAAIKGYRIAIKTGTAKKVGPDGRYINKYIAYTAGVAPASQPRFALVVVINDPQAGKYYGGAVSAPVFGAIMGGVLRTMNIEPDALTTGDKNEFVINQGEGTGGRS

| Structure (SMILES) | pEC50 (E. coli PBP3; [1]) | MIC (E. coli 901C) | MIC (K. pneumoniae UMM) | MIC (E. coli D22) | MIC (K. pneumoniae SI-117) | MIC (E. coli AG100A) | MIC (E. coli AG100) | MIC (K. pneumoniae 848844) | MIC (E. coli ATCC 25922) | pEC50 (E. coli PBP3) |
| --- | --- | --- | --- | --- | --- | --- | --- | --- | --- | --- |
| CCN1CCN(C(=O)N[C@H](C(=O)N[C@H]2Cc3cccc(C(=O)O)c3OB2O)c2ncc(O)cc2F)C(=O)C1=O [Example 176, (R)-3-((S)-2-(4-ethyl-2,3-dioxopiperazine-1-carboxamido)-2-(3-fluoro-5-hydroxypyridin-2-yl)acetamido)-2-hydroxy-3,4-dihydro-2H-benzo[e][1,2]oxaborinine-8-carboxylic acid] | > 4.52 | < 0.25 µg/mL | 32 to 64 µg/mL | 2 to 4 µg/mL | 32 to 64 µg/mL | 2 to 4 µg/mL | 32 to 64 µg/mL | > 128 µg/mL | 32 to 64 µg/mL |  |
| CCN1CCN(C(=O)NC(C(=O)N[C@H]2Cc3cccc(C(=O)O)c3OB2O)c2ncc(O)cc2C)C(=O)C1=O (stereo partly drawn) [Example 178, (3R)-3-(2-(4-ethyl-2,3-dioxopiperazine-1-carboxamido)-2-(5-hydroxy-3-methylpyridin-2-yl)acetamido)-2-hydroxy-3,4-dihydro-2H-benzo[e][1,2]oxaborinine-8-carboxylic acid] |  | 8 to 16 µg/mL | > 128 µg/mL | 32 to 64 µg/mL | > 128 µg/mL | 32 to 64 µg/mL | > 128 µg/mL | > 128 µg/mL | > 128 µg/mL | 3.30 to 4.52 |
| CCN1CCN(C(=O)NC(C(=O)N[C@H]2Cc3cc(F)c(F)c(C(=O)O)c3OB2O)c2ccc(O)c(O)c2Cl)C(=O)C1=O (stereo partly drawn) [Example 180, (3R)-3-(2-(2-chloro-3,4-dihydroxyphenyl)-2-(4-ethyl-2,3-dioxopiperazine-1-carboxamido)acetamido)-6,7-difluoro-2-hydroxy-3,4-dihydro-2H-benzo[e][1,2]oxaborinine-8-carboxylic acid] | > 4.52 | 0.5 to 1 µg/mL | 0.5 to 1 µg/mL | 2 to 4 µg/mL | 2 to 4 µg/mL | 0.5 to 1 µg/mL | 2 to 4 µg/mL | 2 to 4 µg/mL | 8 to 16 µg/mL |  |
| CCOC(=O)c1cccc2c1OB(O)[C@@H](NC(=O)C(NC(=O)N1CCN(CC)C(=O)C1=O)c1ncc(O)cc1F)C2 (stereo partly drawn) [Example 195, Ethyl (3R)-3-(2-(4-ethyl-2,3-dioxopiperazine-1-carboxamido)-2-(3-fluoro-5-hydroxypyridin-2-yl)acetamido)-2-hydroxy-3,4-dihydro-2H-benzo[e][1,2]oxaborinine-8-carboxylate] | < 3.30 | 32 to 64 µg/mL | > 128 µg/mL | > 128 µg/mL | > 128 µg/mL | > 128 µg/mL | > 128 µg/mL | > 128 µg/mL | > 128 µg/mL |  |
| CCN1CCN(C(=O)NC(C(=O)N[C@H]2Cc3cccc(C(=O)O)c3OB2O)c2ccc(OCCCN)cc2F)C(=O)C1=O (stereo partly drawn) [Example 209, (3R)-3-(2-(4-(3-aminopropoxy)-2-fluorophenyl)-2-(4-ethyl-2,3-dioxopiperazine-1-carboxamido)acetamido)-2-hydroxy-3,4-dihydro-2H-benzo[e][1,2]oxaborinine-8-carboxylic acid] |  | < 0.25 µg/mL | 32 to 64 µg/mL | 2 to 4 µg/mL | > 128 µg/mL | 0.5 to 1 µg/mL | 32 to 64 µg/mL | > 128 µg/mL | 8 to 16 µg/mL | 3.30 to 4.52 |
